{"source": "patent US20120005128A1", "about": "“METHODS FOR REDUCING THE RISK OF AN ADVERSE DRONEDARONE / CALCIUM CHANNEL BLOCKERS INTERACTION IN A PATIENT SUFFERING FROM ATRIAL FIBRILATION” (sanofi, priority 2010, published 2012)", "key": {"[1]": {"assay": "ATHENA clinical study, patients with calcium channel blockers baseline medication", "assay_type": "in vivo", "description": "Calcium channel blockers have been used in ATHENA clinical study and at the same rate in the dronedarone group and in the placebo group. About 13 to 20% of the patients had received one of these compounds during the study.\nIn the ATHENA trial, the concomitant administration of calcium antagonists and dronedarone was done according to the above mentioned instructions, i.e. start with low doses of the calcium antagonist and then increase the dose after ECG verification of good tolerability, if necessary and based on individual patient characteristics.\nThe relative risk (RR) was estimated using Cox's […] regression model.\nThe relative risk (RR) is the ratio of the rates of occurrence of a hospitalization or of a death among the patients on dronedarone, relative to the patients on placebo.\nThe percentage reduction x of a given event (hospitalization, death, cardiovascular death, etc.) is calculated in the following way: […]"}, "[2]": {"assay": "Dronedarone/verapamil pharmacokinetic interaction crossover study, plasma PK on Day 14"}, "[3]": {"assay": "12-lead ECG (PR, QTcF intervals) in dronedarone/verapamil interaction study, Day 14", "settings": "baseline Day 1, -0.5 h, least square means"}, "[4]": {"settings": "331 patients with calcium channel blockers baseline medication, 122 events in placebo group (307 patients)"}, "[5]": {"settings": "versus placebo, Cox model, calcium channel blockers baseline medication"}, "[6]": {"settings": "versus placebo, calcium channel blockers baseline medication"}, "[7]": {"settings": "dronedarone plus verapamil versus dronedarone alone"}, "[8]": {"settings": "verapamil plus dronedarone versus verapamil alone"}}, "note": "Where a name gives a salt, the structure may show the parent alone."}
{"smiles": "CCCCc1oc2ccc(NS(C)(=O)=O)cc2c1C(=O)c1ccc(OCCCN(CCCC)CCCC)cc1", "note": "[dronedarone hydrochloride]", "values": [{"measurement": "Number of events, hospitalization for congestive heart failure (CHF)", "setting": "[1]; 331 patients with calcium channel blockers baseline medication, 23 events in placebo group (307 patients)", "result": 14}, {"measurement": "Number of events, cardiovascular hospitalization or death", "setting": "[1]; [4]", "result": 90}, {"measurement": "Number of events, death", "setting": "[1]; [4]", "result": 90}, {"measurement": "Relative risk, cardiovascular hospitalization or death", "setting": "[1]; [5]", "result": 0.628}, {"measurement": "Relative risk, death", "setting": "[1]; [5]", "result": 0.628}, {"measurement": "Relative risk, hospitalization for congestive heart failure (CHF)", "setting": "[1]; [5]", "result": 0.556}, {"measurement": "Decrease of CHF", "setting": "[1]; [6]", "result": 44, "unit": "%"}, {"measurement": "Decrease of cardiovascular hospitalization or death", "setting": "[1]; [6]", "result": 37, "unit": "%"}, {"measurement": "Decrease of death", "setting": "[1]; [6]", "result": 37, "unit": "%"}]}
{"smiles": "CCCCc1oc2ccc(NS(C)(=O)=O)cc2c1C(=O)c1ccc(OCCCN(CCCC)CCCC)cc1", "note": "[Dronedarone, 2-n-Butyl-3-[4-(3-di-n-butylaminopropoxy)benzoyl]-5-methylsulphonamidobenzofuran]", "values": [{"measurement": "Ratio of geometric means, AUC0-12", "setting": "[2]; [7]", "result": 1.48}, {"measurement": "Ratio of geometric means, Cmax", "setting": "[2]; [7]", "result": 1.42}, {"measurement": "Risk of hypotension, bradycardia and heart failure", "setting": "[1]; patients using both dronedarone and calcium antagonists", "result": "no increase of the risk of hypotension, bradycardia and heart failure"}, {"measurement": "Mean change (Eavr) in PR from baseline", "setting": "[3]", "result": 9.7, "unit": "ms"}, {"measurement": "Mean change (Eavr) in QTcF from baseline", "setting": "[3]", "result": 22.1, "unit": "ms"}]}
{"smiles": "COc1ccc(CCN(C)CCCC(C#N)(c2ccc(OC)c(OC)c2)C(C)C)cc1OC", "note": "(stereo not drawn) [VP, verapamil]", "values": [{"measurement": "Mean change (Eavr) in PR from baseline", "setting": "[3]", "result": 4.2, "unit": "ms"}, {"measurement": "Mean change (Eavr) in QTcF from baseline", "setting": "[3]", "result": 2.1, "unit": "ms"}]}
{"smiles": "COc1ccc(CCNCCCC(C#N)(c2ccc(OC)c(OC)c2)C(C)C)cc1OC", "note": "(stereo not drawn) [NVP, norverapamil]", "values": [{"measurement": "Ratio of geometric means, AUC0-24", "setting": "[2]; [8]", "result": 1.29}, {"measurement": "Ratio of geometric means, Cmax", "setting": "[2]; [8]", "result": 1.31}]}
